Assay results as given in paper PMC9151520 (Archives of Toxicology, 2022).
Several values for one entry are separate records, joined by “and”; a condition that tells them apart may be missing. Identical values can stand only once. Counter-ions that a name gives are not always drawn. Like-named read-outs stand apart in the source and are kept apart here.

Assays:
[1] = tested on: p53 signaling (p53RE-bla HCT-116 cells)
[2] = tested on: p53 signaling (p53RE-bla HCT-116 cells); experiment: cells; type: cell-based; settings: for EC50 / Emax: Homo sapiens
[3] = tested on: p53 signaling (p53RE-bla HCT-116 cells); experiment: cells; settings: Homo sapiens
[4] = tested on: p53 signaling (p53RE-bla HCT-116 cells); remark: listed apart in the source
[5] = tested on: p53 signaling (p53RE-bla HCT-116 cells); experiment: cells; type: cell-based
[6] = tested on: p53 signaling (p53RE-bla HCT-116 cells); experiment: cells; type: cell-based
[7] = HCT-116, read-out: p53 activation EC50, primary screening
[8] = HCT-116, read-out: p53 activation efficacy, primary screening
[9] = HCT-116, read-out: EC50, p53 activation, primary screening
[10] = HCT-116, read-out: Efficacy, p53 activation, cherry pick confirmation
[11] = HCT-116, read-out: Efficacy, p53 activation, primary screening

| Molecule | Viability EC50, cherry pick confirmation (p53RE-bla HCT-116 cells) | Viability EC50, primary screening (p53RE-bla HCT-116 cells) | Viability efficacy, cherry pick confirmation (p53RE-bla HCT-116 cells) | Viability efficacy, primary screening (p53RE-bla HCT-116 cells) | p53 activation EC50, cherry pick confirmation [1] | p53 activation efficacy, cherry pick confirmation [1] | p53 activation EC50, cherry pick confirmation [2] | p53 activation EC50, primary screening [2] | p53 activation efficacy, cherry pick confirmation [2] | p53 activation efficacy, primary screening [2] | EC50 [3, 7] [µM] | Emax [3, 8] [%] | p53 activation EC50, cherry pick confirmation [4] | p53 activation EC50, primary screening [4] | p53 activation efficacy, cherry pick confirmation [4] | p53 activation efficacy, primary screening [4] | further results |
| --- | --- | --- | --- | --- | --- | --- | --- | --- | --- | --- | --- | --- | --- | --- | --- | --- | --- |
| CN1CCc2cc3c(cc2C1O)OCO3 (stereo not drawn) [Hydrastinine hydrochloride] | inactive | inactive | inactive | inactive | inactive | inactive | inactive | inactive | inactive | inactive | 28.6 | 56.5 | inactive | inactive | inactive | inactive |  |
| CCc1c2c(nc3ccc(OC(=O)N4CCC(N5CCCCC5)CC4)cc13)-c1cc3c(c(=O)n1C2)COC(=O)[C@]3(O)CC [Irinotecan, reference compound] |  |  |  |  |  |  |  |  |  |  |  |  |  |  |  |  | EC50 ([3]; HCT-116): 0.23 µM; Emax ([3]; HCT-116, read-out: efficacy): 109%; EC50 ([5]; Homo sapiens, HCT-116): 0.29 µM; Emax ([5]; Homo sapiens, HCT-116, read-out: efficacy): 79.9%; EC50 [6]: Inactive |
| O=C1OC(O)C(Cl)=C1Cl (stereo not drawn) [Mucochloric acid] | inactive | inactive | inactive | inactive | inactive | inactive |  | inactive |  | inactive | 49.4 | 51.8 | inactive | inactive | inactive | inactive | EC50 ([2]; HCT-116, read-out: p53 activation EC50, cherry pick confirmation): 15.9 µM; Emax ([2]; HCT-116, read-out: p53 activation efficacy, cherry pick confirmation): 180% |
| c1cc2ccc3cccc4ccc(c1)c2c34 [Pyrene] | inactive | inactive | inactive | inactive | inactive | inactive | inactive | inactive | inactive | inactive | 21.7 | 51.6 | inactive | inactive | inactive | inactive |  |
| COP(=O)(OC)O/C(=C\Cl)c1cc(Cl)c(Cl)cc1Cl [Tetrachlorvinphos (Gardona), Tetrachlorvinphos] |  |  |  |  |  |  |  |  |  |  |  |  |  |  |  |  | EC50 ([3]; HCT-116): 10.5 µM; Emax ([3]; HCT-116, read-out: efficacy): 39.9%; EC50 ([5]; Homo sapiens, HCT-116): 18.1 µM; EC50 ([6]; Homo sapiens, HCT-116, 0.5 h): 2.53 µM |
| CC(O)CN(CC(C)O)CC(C)O (stereo not drawn) [Triisopropanolamine] | inactive | inactive | inactive | inactive | inactive | inactive | inactive | inactive | inactive | inactive | 37 | 40 | inactive | inactive | inactive | inactive |  |
| O=P(OCC(Br)CBr)(OCC(Br)CBr)OCC(Br)CBr (stereo not drawn) [Tris(2,3-dibromopropyl) phosphate] | inactive | inactive | inactive | inactive | inactive | inactive | inactive | inactive | inactive | inactive | 46.6 | 38.9 | inactive | inactive | inactive | inactive |  |
| CCCCOCCOP(=O)(OCCOCCCC)OCCOCCCC [Tris(2-butoxyethyl) phosphate] | inactive | inactive | inactive | inactive | inactive | inactive | inactive | inactive | inactive | inactive | 35.1 | 48.7 | inactive | inactive | inactive | inactive |  |
| C=CC1(C)OC(=O)N(c2cc(Cl)cc(Cl)c2)C1=O (stereo not drawn) [Vinclozolin] | inactive | inactive | inactive | inactive | inactive | inactive | inactive | inactive | inactive | inactive | 16.9 | 39.4 | inactive | inactive | inactive | inactive |  |
| COc1cc([C@@H]2c3cc4c(cc3[C@@H](O[C@@H]3O[C@@H]5CO[C@@H](C)O[C@H]5[C@H](O)[C@H]3O)[C@H]3COC(=O)[C@H]23)OCO4)cc(OC)c1O [etoposide, reference compound] |  |  |  |  |  |  |  |  |  |  |  |  |  |  |  |  | EC50, viability, cherry pick confirmation (p53RE-bla HCT-116 cells): inactive; EC50, viability, primary screening (p53RE-bla HCT-116 cells): inactive; Efficacy, viability, cherry pick confirmation (p53RE-bla HCT-116 cells): inactive; Efficacy, viability, primary screening (p53RE-bla HCT-116 cells): inactive; p53 induction in the presence of microsomes compared with absence of microsomes [1]: inactivity or lower activity; EC50 [2, 9]: 1.33 µM; Emax [2, 10]: 72.1%; Emax [2, 11]: 62.9%; EC50 [3, 9]: 0.888 µM; Emax [3, 10]: 32.9%; Emax [3, 11]: 22.1%; EC50, p53 activation, cherry pick confirmation [4]: inactive; EC50, p53 activation, primary screening [4]: inactive; Efficacy, p53 activation, cherry pick confirmation [4]: inactive; Efficacy, p53 activation, primary screening [4]: inactive |
| Aflatoxin B1 [reference compound] |  |  |  |  |  |  |  |  |  |  |  |  |  |  |  |  | p53 activation efficacy [1]: 77.9079 and 59.8273; potency in the confirmation study compared to the primary screening [1]: tenfold higher potency; EC50 [4]: 4.5 µM and 5.3 µM and 3 µM; EC50 [5]: inactive; EC50 [6]: inactive |
